Experimental data taken from ChEMBL document CHEMBL1671662, “In vitro activities of telavancin and six comparator agents against anaerobic bacterial isolates” (2009).

Assays:
[1] = tested on: Coprobacillus cateniformis; assay: Antibacterial activity against Coprobacillus cateniformis by CLSI M11-A6 agar dilution method; format: functional
[2] = tested on: Peptoniphilus asaccharolyticus; assay: Antibacterial activity against Peptoniphilus asaccharolyticus by CLSI M11-A6 agar dilution method; format: functional
Prevotella nigrescens = assay: Antibacterial activity against Prevotella nigrescens by CLSI M11-A6 agar dilution method; format: functional
[3] = tested on: Catenibacterium mitsuokai; assay: Antibacterial activity against Catenibacterium mitsuokai by CLSI M11-A6 agar dilution method; format: functional
[4] = tested on: Clostridium celerecrescens; assay: Antibacterial activity against Clostridium celerecrescens by CLSI M11-A6 agar dilution method; format: functional; details: Lacrimispora celerecrescens
Parabacteroides merdae = assay: Antibacterial activity against Parabacteroides merdae by CLSI M11-A6 agar dilution method; format: functional
Ruminococcus obeum = assay: Antibacterial activity against Ruminococcus obeum by CLSI M11-A6 agar dilution method; format: functional; details: Blautia obeum
Clostridium sp. = assay: Antibacterial activity against Clostridium sp. by CLSI M11-A6 agar dilution method; format: functional
[5] = tested on: Bifidobacterium adolescentis; assay: Antibacterial activity against Bifidobacterium adolescentis by CLSI M11-A6 agar dilution method; format: functional
Ruminococcus lactaris = assay: Antibacterial activity against Ruminococcus lactaris by CLSI M11-A6 agar dilution method; format: functional
Odoribacter splanchnicus = assay: Antibacterial activity against Bacteroides splanchnicus by CLSI M11-A6 agar dilution method; format: functional
Fusobacterium varium = assay: Antibacterial activity against Fusobacterium varium by CLSI M11-A6 agar dilution method; format: functional
Finegoldia magna = assay: Antibacterial activity against Finegoldia magna by CLSI M11-A6 agar dilution method; format: functional
Flavonifractor plautii = assay: Antibacterial activity against Clostridium orbiscindens by CLSI M11-A6 agar dilution method; format: functional
[6] = tested on: Streptococcus intermedius; assay: Antibacterial activity against Streptococcus intermedius by CLSI M11-A6 agar dilution method; format: functional
Collinsella aerofaciens = assay: Antibacterial activity against Colinsella aerofaciens by CLSI M11-A6 agar dilution method; format: functional
Clostridium spiroforme = assay: Antibacterial activity against Clostridium spiroforme by CLSI M11-A6 agar dilution method; format: functional; details: Thomasclavelia spiroformis
Clostridium perfringens = assay: Antibacterial activity against Clostridium perfringens by CLSI M11-A6 agar dilution method; format: functional
Clostridium hathewayi = assay: Antibacterial activity against Clostridium hathewayi by CLSI M11-A6 agar dilution method; format: functional; details: Hungatella hathewayi
Coriobacterium = assay: Antibacterial activity against […] by CLSI M11-A6 agar dilution method; format: functional
[7] = tested on: Bifidobacterium pseudolongum; assay: Antibacterial activity against Bifidobacterium pseudolongum by CLSI M11-A6 agar dilution method; format: functional
Clostridium disporicum = assay: Antibacterial activity against Clostridium disporicum by CLSI M11-A6 agar dilution method; format: functional
Streptococcus anginosus = assay: Antibacterial activity against Streptococcus anginosus by CLSI M11-A6 agar dilution method; format: functional
Clostridium subterminale = assay: Antibacterial activity against Clostridium subterminale by CLSI M11-A6 agar dilution method; format: functional
[8] = tested on: Clostridium sporosphaeroides; assay: Antibacterial activity against Clostridium sporosphaeroides by CLSI M11-A6 agar dilution method; format: functional; details: Faecalispora sporosphaeroides
Ruminococcus torques = assay: Antibacterial activity against Ruminococcus torques by CLSI M11-A6 agar dilution method; format: functional; details: Mediterraneibacter torques
Prevotella intermedia = assay: Antibacterial activity against Prevotella P intermedia by CLSI M11-A6 agar dilution method; format: functional
[9] = tested on: Bacteroides thetaiotaomicron; assay: Antibacterial activity against Bacteroides thetaiotaomicron by CLSI M11-A6 agar dilution method; format: functional
[10] = Antibacterial activity against Bifidobacterium infantis by CLSI M11-A6 agar dilution method; format: functional, Bifidobacterium longum subsp. infantis; details: Bifidobacterium longum
Prevotella oris = assay: Antibacterial activity against Prevotella oris by CLSI M11-A6 agar dilution method; format: functional; details: Segatella oris
[11] = tested on: Paeniclostridium sordellii; assay: Antibacterial activity against Clostridium sordellii by CLSI M11-A6 agar dilution method; format: functional; details: Paraclostridium sordellii
Blautia luti = assay: Antibacterial activity against Ruminococcus luti by CLSI M11-A6 agar dilution method; format: functional
Prevotella bivia = assay: Antibacterial activity against Prevotella bivia by CLSI M11-A6 agar dilution method; format: functional
Prevotella buccae = assay: Antibacterial activity against Prevotella buccae by CLSI M11-A6 agar dilution method; format: functional; details: Segatella buccae
Clostridioides difficile = assay: Antibacterial activity against Clostridium difficile by CLSI M11-A6 agar dilution method; format: functional
Anaerococcus tetradius = assay: Antibacterial activity against Anaerococcus tetradius by CLSI M11-A6 agar dilution method; format: functional
Bifidobacterium longum = assay: Antibacterial activity against Bifidobacterium longum by CLSI M11-A6 agar dilution method; format: functional
[12] = tested on: Clostridium paraputrificum; assay: Antibacterial activity against Clostridium paraputrificum by CLSI M11-A6 agar dilution method; format: functional
Prevotella corporis = assay: Antibacterial activity against Prevotella corporis by CLSI M11-A6 agar dilution method; format: functional
Ruminococcus albus = assay: Antibacterial activity against Ruminococcus albus by CLSI M11-A6 agar dilution method; format: functional; details: Hominimerdicola alba
Clostridium sporogenes = assay: Antibacterial activity against Clostridium sporogenes by CLSI M11-A6 agar dilution method; format: functional
Clostridium butyricum = assay: Antibacterial activity against Clostridium butyricum by CLSI M11-A6 agar dilution method; format: functional
Clostridium bartlettii = assay: Antibacterial activity against Clostridium bartlettii by CLSI M11-A6 agar dilution method; format: functional; details: Intestinibacter bartlettii

CCCCCCCCCC(=O)N[C@@H](Cc1c[nH]c2ccccc12)C(=O)N[C@H](CC(N)=O)C(=O)N[C@@H](CC(=O)O)C(=O)N[C@@H]1C(=O)NCC(=O)N[C@@H](CCCN)C(=O)N[C@@H](CC(=O)O)C(=O)N[C@H](C)C(=O)N[C@@H](CC(=O)O)C(=O)NCC(=O)N[C@H](CO)C(=O)N[C@@H]([C@H](C)CC(=O)O)C(=O)N[C@@H](CC(=O)c2ccccc2N)C(=O)O[C@@H]1C
0.5 µg/mL: MIC50 (Ruminococcus obeum) | MIC90 (Ruminococcus obeum) | MIC50 (Clostridium perfringens) | MIC50 (Clostridioides difficile)
2 µg/mL: MIC90 (Ruminococcus lactaris) | MIC50 [6] | MIC90 (Clostridium hathewayi) | MIC50 (Streptococcus anginosus) | MIC90 (Clostridium subterminale) | MIC90 (Ruminococcus torques) | MIC90 (Blautia luti) | MIC90 (Ruminococcus albus)
4 µg/mL: MIC90 [2] | MIC90 (Finegoldia magna) | MIC90 [6] | MIC90 (Streptococcus anginosus) | MIC90 (Anaerococcus tetradius)
1 µg/mL: MIC50 [1] | MIC50 [2] | MIC50 [3] | MIC50 [4] | MIC50 (Clostridium sp.) | MIC50 [5] | MIC50 (Ruminococcus lactaris) | MIC50 (Finegoldia magna) | MIC50 (Flavonifractor plautii) | MIC50 (Collinsella aerofaciens) | MIC50 (Clostridium spiroforme) | MIC90 (Clostridium perfringens) | MIC50 (Clostridium hathewayi) | MIC50 (Coriobacterium) | MIC50 [7] | MIC50 (Clostridium disporicum) | MIC50 (Clostridium subterminale) | MIC50 [8] | MIC50 (Ruminococcus torques) | MIC50 [10] | MIC50 [11] | MIC50 (Blautia luti) | MIC90 (Clostridioides difficile) | MIC50 (Anaerococcus tetradius) | MIC50 (Bifidobacterium longum) | MIC50 [12] | MIC50 (Ruminococcus albus) | MIC50 (Clostridium sporogenes) | MIC50 (Clostridium butyricum) | MIC50 (Clostridium bartlettii)
32 µg/mL: MIC90 [1] | MIC90 [3] | MIC90 [5] | MIC90 (Collinsella aerofaciens) | MIC90 (Coriobacterium) | MIC90 [7] | MIC90 [10] | MIC90 (Bifidobacterium longum)
8 µg/mL: MIC90 [4] | MIC90 (Clostridium sp.) | MIC90 (Flavonifractor plautii) | MIC90 (Clostridium spiroforme) | MIC90 (Clostridium disporicum) | MIC90 [8] | MIC90 [11] | MIC90 [12] | MIC90 (Clostridium sporogenes) | MIC90 (Clostridium butyricum) | MIC90 (Clostridium bartlettii)
> 128 µg/mL: MIC (Prevotella nigrescens) | MIC50 (Prevotella nigrescens) | MIC90 (Prevotella nigrescens) | MIC (Parabacteroides merdae) | MIC50 (Parabacteroides merdae) | MIC90 (Parabacteroides merdae) | MIC (Odoribacter splanchnicus) | MIC50 (Odoribacter splanchnicus) | MIC90 (Odoribacter splanchnicus) | MIC (Fusobacterium varium) | MIC50 (Fusobacterium varium) | MIC90 (Fusobacterium varium) | MIC (Prevotella intermedia) | MIC50 (Prevotella intermedia) | MIC90 (Prevotella intermedia) | MIC [9] | MIC50 [9] | MIC90 [9] | MIC (Prevotella oris) | MIC50 (Prevotella oris) | MIC90 (Prevotella oris) | MIC (Prevotella bivia) | MIC50 (Prevotella bivia) | MIC90 (Prevotella bivia) | MIC (Prevotella buccae) | MIC50 (Prevotella buccae) | MIC90 (Prevotella buccae) | MIC (Prevotella corporis) | MIC50 (Prevotella corporis) | MIC90 (Prevotella corporis)
